Each block holds one compound with its values, some of them ahead of it.
Key:
β-secretase (BACE) [1] = target: T1, β-secretase (BACE) (Homo sapiens, UniProt P56817); assay: BACE % Inhibition Assay ((Aedens)-[…]-(Dabcyl K-amide) substrate); format: biochemical; conditions: % error ±10%
T1 construct: purchased Panvera
Procedure: The substrate stock solution was prepared in DMSO as a 10 mg/mL solution. The substrate working solution was prepared by diluting the 10 mg/mL stock solution with substrate assay buffer to a final concentration of […]. The β-secretase (BACE) working solution was prepared by diluting a 0.83 mg/mL BACE stock solution with enzyme assay buffer to a final concentration of 4 μg/mL.
Test compounds were dissolved in DMSO to 10 mM.
The screening procedure for this assay was as follows: 15 μL of BACE working solution was pipetted into each well of a 96-well plate. To each well was then pipetted 2 μL of test compound at the selected concentration. Test compound and BACE were then mixed with a pipettor and incubated for 20 min at room temperature. To each well was then added 10 μL of the substrate working solution. The plates were then incubated for 1 hour at room temperature.
The procedure for the blank was as follows. 15 μL of assay buffer was pipetted into each well to be used as a blank control. To each well was then added 2 μL of vehicle and 10 μL of substrate working solution. The plates were then incubated for 1 hour at room temperature.
The procedure for the positive control was as follows: 15 μl of BACE working solution was pipetted into each well to be used as a positive control. To each well was then pipetted 2 μL of vehicle. Vehicle and BACE were then mixed with a pipettor and incubated for 20 min at room temperature. To each well was then added 10 μL of the substrate working solution. The plates were the incubated for 1 hour at room temperature.
For test compounds, % inhibition was determined at each concentration as follows: […]

β-secretase (BACE) [2] = target: T1, β-secretase (BACE); assay: BACE FS1 % Inhibition Assay; format: biochemical
How it was run: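 Percent inhibition per compound concentration was referenced to vehicle-treated enzyme and no-enzyme wells. Enzyme at a 4 μg/mL working stock plus compound was mixed for 20 min at room temperature before the FS1 substrate (300 μg/mL working stock) was added for a 1 h room-temperature reaction.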

T1 sequence (P56817 46-501): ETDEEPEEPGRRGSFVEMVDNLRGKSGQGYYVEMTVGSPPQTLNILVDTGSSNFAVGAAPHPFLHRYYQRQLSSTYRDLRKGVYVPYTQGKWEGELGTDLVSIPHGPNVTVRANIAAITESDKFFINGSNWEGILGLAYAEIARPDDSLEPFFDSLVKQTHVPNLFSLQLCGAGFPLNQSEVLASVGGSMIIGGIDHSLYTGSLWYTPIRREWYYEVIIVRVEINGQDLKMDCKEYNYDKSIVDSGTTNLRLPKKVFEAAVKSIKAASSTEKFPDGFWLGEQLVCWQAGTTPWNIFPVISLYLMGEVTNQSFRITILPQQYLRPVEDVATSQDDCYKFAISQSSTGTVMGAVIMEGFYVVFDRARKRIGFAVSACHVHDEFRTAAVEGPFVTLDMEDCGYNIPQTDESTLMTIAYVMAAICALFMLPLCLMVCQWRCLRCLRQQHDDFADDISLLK

% Inhibition (β-secretase (BACE) [1]; 0.3 μM compound): <30%
% Inhibition (β-secretase (BACE) [1]; 1 μM compound): 80%
% Inhibition (β-secretase (BACE) [1]; 3 μM compound): 111%
SMILES: CC(C)(C)OC(=O)NCC(C1CCCCC1)N1Cc2cc(Oc3ccccc3)ccc2N=C1N (stereo not drawn) [Compound 367]

% Inhibition (FS) (β-secretase (BACE) [2]; 0.3 μM compound, FS1 substrate): <30%
% Inhibition (FS) (β-secretase (BACE) [2]; 1 μM compound, FS1 substrate): 30%
SMILES: COc1ccccc1-c1ccc2c(c1)CN([C@@H](CCC(=O)N(C)Cc1cc(C)no1)C1CCCCC1)C(N)=N2 [Compound 718]

% Inhibition (FS) (β-secretase (BACE) [2]; 0.3 μM test compound): <30%
% Inhibition (FS) (β-secretase (BACE) [2]; 1 μM test compound): <30%
% Inhibition (FS) (β-secretase (BACE) [2]; 3 μM test compound): <30%
SMILES: CCCCCCCCC(CCC(=O)N(C)C1CCCCC1)N1Cc2cc(Oc3ccccc3)ccc2N=C1N (stereo not drawn) [Compound 210]

% Inhibition (FS) (β-secretase (BACE) [2]; 0.3 μM test compound): <30%
% Inhibition (FS) (β-secretase (BACE) [2]; 1 μM test compound): <30%
% Inhibition (FS) (β-secretase (BACE) [2]; 3 μM test compound): <30%
SMILES: CC(C)Oc1ccc2c(c1)CN(Cc1cccc(C(=O)N(C)C3CCCCC3)c1)C(N)=N2 [Compound 519]

% Inhibition (FS) (β-secretase (BACE) [2]; 0.3 μM test compound): <30%
% Inhibition (FS) (β-secretase (BACE) [2]; 1 μM test compound): <30%
% Inhibition (FS) (β-secretase (BACE) [2]; 3 μM test compound): 45%
SMILES: CC(=O)c1ccccc1-c1ccc2c(c1)CN(Cc1cccc(C(=O)N(C)C3CCCCC3)c1)C(N)=N2 [Compound 323]

% Inhibition (FS) (β-secretase (BACE) [2]; 0.3 μM compound, FS1 substrate): 68%
% Inhibition (FS) (β-secretase (BACE) [2]; 1 μM compound, FS1 substrate): 98%
SMILES: Cc1ccccc1-c1ccc2c(c1)CN(CCNC(=O)CCC(C)C)C(N)=N2 [Compound 661]

% Inhibition (FS) (β-secretase (BACE) [2]; 0.3 μM compound, FS1 substrate): 33%
% Inhibition (FS) (β-secretase (BACE) [2]; 1 μM compound, FS1 substrate): 39%
% Inhibition (FS) (β-secretase (BACE) [2]; 3 μM compound, FS1 substrate): 72%
SMILES: COc1ccccc1-c1ccc2c(c1)CN([C@@H](CCC(=O)N(C)Cc1cnn(-c3ccccc3)c1)C1CCCCC1)C(N)=N2 [Compound 717]

Further lines, the compound ahead of its results:

SMILES: CN(C(=O)[C@@H]1CCCC[C@@H]1N1Cc2cc(Oc3ccccc3)ccc2N=C1N)C1CCCCC1 [Compound 87]
% Inhibition (β-secretase (BACE) [1]; 3 μM compound): <30%
% Inhibition (β-secretase (BACE) [1]; 10 μM compound): <30%

SMILES: CN(C(=O)[C@@H]1CC[C@H](N2Cc3cc(Oc4ccccc4)ccc3N=C2N)C1)C1CCCCC1 [Compound 77]
% Inhibition (β-secretase (BACE) [1]; 3 μM compound): <30%
% Inhibition (β-secretase (BACE) [1]; 10 μM compound): <30%

SMILES: NC1=Nc2ccc(Oc3ccccc3)cc2CN1Cc1cccc(CNC(=O)C(c2ccccc2)c2ccccc2)c1 [Compound 337]
% Inhibition (β-secretase (BACE) [1]; 0.3 μM compound): <30%
% Inhibition (β-secretase (BACE) [1]; 1 μM compound): <30%
% Inhibition (β-secretase (BACE) [1]; 3 μM compound): <30%

SMILES: CCCCC(CC)C(=O)NCc1cccc(CN2Cc3cc(Oc4ccccc4)ccc3N=C2N)c1 (stereo not drawn) [Compound 339]
% Inhibition (β-secretase (BACE) [1]; 0.3 μM compound): <30%
% Inhibition (β-secretase (BACE) [1]; 1 μM compound): <30%
% Inhibition (β-secretase (BACE) [1]; 3 μM compound): <30%

SMILES: Cc1ccc(S(=O)(=O)NCCN2Cc3cc(Oc4ccccc4)ccc3N=C2N)cc1 [Compound 109]
% Inhibition (β-secretase (BACE) [1]; 3 μM compound): <30%
% Inhibition (β-secretase (BACE) [1]; 10 μM compound): 58%

SMILES: CCOc1cccc(Nc2ccc3c(c2)CN(Cc2cccc(C(=O)N(C)C4CCCCC4)c2)C(N)=N3)c1 [Compound 440]
% Inhibition (FS) (β-secretase (BACE) [2]; 0.3 μM test compound): <30%
% Inhibition (FS) (β-secretase (BACE) [2]; 1 μM test compound): 35%
% Inhibition (FS) (β-secretase (BACE) [2]; 3 μM test compound): 72%

SMILES: CC(C)(C)C(=O)NCCN1Cc2cc(-c3cnc4ccccc4c3)ccc2N=C1N [Compound 674]
% Inhibition (FS) (β-secretase (BACE) [2]; 0.3 μM compound, FS1 substrate): 36%
% Inhibition (FS) (β-secretase (BACE) [2]; 1 μM compound, FS1 substrate): <30%
% Inhibition (FS) (β-secretase (BACE) [2]; 3 μM compound, FS1 substrate): 41%

SMILES: CCCC(=O)NCCN1Cc2cc(-c3ccc4ccccc4c3)ccc2N=C1N [Compound 666]
% Inhibition (FS) (β-secretase (BACE) [2]; 0.3 μM compound, FS1 substrate): 37%
% Inhibition (FS) (β-secretase (BACE) [2]; 1 μM compound, FS1 substrate): <30%
% Inhibition (FS) (β-secretase (BACE) [2]; 3 μM compound, FS1 substrate): <30%

SMILES: CCCC=Cc1ccc2c(c1)CN(CCNC(=O)c1cc(C)oc1C)C(N)=N2 [Compound 587]
% Inhibition (FS) (β-secretase (BACE) [2]; 0.3 μM test compound): <30%
% Inhibition (FS) (β-secretase (BACE) [2]; 1 μM test compound): <30%
% Inhibition (FS) (β-secretase (BACE) [2]; 3 μM test compound): <30%

SMILES: CCCC(=O)NCCN1Cc2cc(-c3cncnc3)ccc2N=C1N [Compound 569]
% Inhibition (FS) (β-secretase (BACE) [2]; 0.3 μM test compound): <30%
% Inhibition (FS) (β-secretase (BACE) [2]; 1 μM test compound): <30%
% Inhibition (FS) (β-secretase (BACE) [2]; 3 μM test compound): <30%

SMILES: NC1=Nc2ccc(-c3ccccc3Cl)cc2CN1CCNC(=O)C1CCOCC1 [Compound 689]
% Inhibition (FS) (β-secretase (BACE) [2]; 0.3 μM compound, FS1 substrate): 33%
% Inhibition (FS) (β-secretase (BACE) [2]; 1 μM compound, FS1 substrate): 82%

SMILES: COc1cccc(OC)c1Oc1ccc2c(c1)CN(CCC(=O)NC1C3CC4CC(C3)CC1C4)C(N)=N2 (stereo not drawn) [Compound 465]
% Inhibition (FS) (β-secretase (BACE) [2]; 0.3 μM test compound): <30%
% Inhibition (FS) (β-secretase (BACE) [2]; 1 μM test compound): <30%
% Inhibition (FS) (β-secretase (BACE) [2]; 3 μM test compound): <30%

SMILES: CCCCCC1CCC(C(=O)NCCN2Cc3cc(Oc4ccccc4)ccc3N=C2N)CC1 (stereo not drawn) [Compound 182]
% Inhibition (FS) (β-secretase (BACE) [2]; 0.3 μM test compound): <30%
% Inhibition (FS) (β-secretase (BACE) [2]; 1 μM test compound): <30%
% Inhibition (FS) (β-secretase (BACE) [2]; 3 μM test compound): 38%

SMILES: CC(C)(C)OC(=O)N1CCCCC(N2Cc3cc(Oc4ccccc4)ccc3N=C2N)C1 (stereo not drawn) [Compound 510]
% Inhibition (FS) (β-secretase (BACE) [2]; 0.3 μM test compound): <30%
% Inhibition (FS) (β-secretase (BACE) [2]; 1 μM test compound): <30%
% Inhibition (FS) (β-secretase (BACE) [2]; 3 μM test compound): 37%

— patent publication US8426429B2, “2-amino-quinazoline derivatives useful as inhibitors of β-secretase (BACE)” (Jansssen Pharmaceutica N.V., priority 2004, dated 2013)
